Our source for the EC50 and CC50 values is US9944598B2, “Mono- or di-substituted indole derivatives as dengue viral replication inhibitors” (priority 2014, dated 2018).

Series [1] concerns DENV-2 16681 strain labeled with eGFP. The series can be described thus: DENV-2 antiviral assay (eGFP fluorescence, Vero cells). To be noted: DENV-2 16681 eGFP, MOI 0.5, 3 days. It is filed as cell-based, Dengue virus. Here is the method: The antiviral activity of all the compounds of the invention was tested against DENV-2 16681 strain which was labeled with enhanced green fluorescent protein (eGPF). The culture medium consists of minimal essential medium supplemented with 2% of heat-inactivated fetal calf serum, 0.04% gentamycin (50 mg/mL) and 2 mM of L-glutamine. Vero cells, obtained from ECACC, were suspended in culture medium and 25 μL was added to 384-well plates (2500 cells/well), which already contain the antiviral compounds. Typically, these plates contain a 4-fold serial dilution of 9 dilution steps of the test compound at 200 times the final concentration in 100% DMSO (200 nL). In addition, each compound concentration is tested in quadruplicate (final concentration range: 25 μM-0.00038 μM). Finally, each plate contains wells which are assigned as virus controls (containing cells and virus in the absence of compound), cell controls (containing cells in the absence of virus and compound) and medium controls (containing medium in the absence of cells, virus and compounds). To the wells assigned as medium control, 25 μL of culture medium was added instead of Vero cells. Once the cells were added to the plates, the plates were incubated for 30 minutes at room temperature to allow the cells to distribute evenly within the wells. Next, the plates were incubated in a fully humidified incubator (37° C., 5% CO2) until the next day. Then, DENV-2 strain 16681, labeled with eGFP, was added at a multiplicity of infection (MOI) of 0.5. Therefore, 15 μL of virus suspension was added to all the wells containing test compound and to the wells assigned as virus control. In parallel, 15 μL of culture medium was added to the medium and cell controls. Next, the plates were incubated for 3 days in a fully humidified incubator (37° C., 5% CO2). At the day of the read out, the eGFP fluorescence was measured using an automated fluorescence microscope at 488 nm (blue laser). Using an in-house LIMS system, inhibition dose response curves for each compound were calculated and the half maximal effective concentration (EC50) was determined. Therefore, the percent inhibition (I) for every test concentration is calculated using the following formula: I=100*(ST−SCC)/(SVC−SCC); ST, SCC and SVC are the amount of eGFP signal in the test compound, cell control and virus control wells, respectively. The EC50 represents the concentration of a compound at which the virus replication is inhibited with 50%, as measured by a 50% reduction of the eGFP fluorescent intensity compared to the virus control. The EC50 is calculated using linear interpolation (Table 1).

The next series is described as follows: in vitro. It is filed as cell-based. To be noted: African green monkey, CC50. The procedure:
(§1) In parallel, the toxicity of the compounds was assessed on the same plates. Once the read-out for the eGFP signal was done, 10 μL of resazurin, a cell viability stain, was added to all wells of the 384-well plates. The resazurin assay is based on the reduction of the blue resazurin by NADH, produced by the cells, into the highly fluorescent product, resorufin. The formation of pink fluorescent resorufin is directly related to the number of viable cells in the well. The plates were incubated for an additional 5 hours in a fully humidified incubator (37° C., 5% CO2). Next, the plates were measured on an Infinite reader (Tecan) using an excitation wavelength of 530 nm. The half maximal cytotoxic concentration (CC50) was also determined, defined as the concentration required to reduce the resazurin conversion by 50% compared to that of the cell control wells (Table 1). Finally, the selectivity index (SI) is determined for the compounds, which is calculated as followed: SI=CC50/EC50.

Another series has as its system Vero cells. Kind of series: in vitro. Type of series: cell-based. To be noted: African green monkey. Here is the method: as §1
Setting [2] is: Dengue virus, DENV2, Vero, 72 h.

The EC50 is the midpoint of the concentration-response curve. What is called CC50 is the concentration that lowers cell viability or growth by half. Consider `COc1cc(NC(C(=O)c2c[nH]c3c(C)cc(F)cc23)c2ccc(Cl)cc2OC)cc(OCCO)c1` (racemic) [Compound 8, 2-(4-chloro-2-methoxyphenyl)-1-(5-fluoro-7-methyl-1H-indol-3-yl)-2-((3-(2-hydroxyethoxy)-5-methoxyphenyl)amino)ethanone], for which, in series [1] (setting [2]), the EC50 turned out to be 2.4 nM. In “in vitro”, half-maximal cytotoxicity (CC50) was put at 8000 nM.
In series [1] (setting [2]), `COc1cc(NC(C(=O)c2c[nH]c3cc(OC)c(F)cc23)c2ccc(Cl)cc2OC)cc(OCCO)c1` (racemic) [Compound 7, 2-(4-chloro-2-methoxyphenyl)-1-(5-fluoro-6-methoxy-1H-indol-3-yl)-2-((3-(2-hydroxyethoxy)-5-methoxyphenyl)amino)ethanone] returned an EC50 of 2.6 nM. In the series “in vitro”, this molecule displayed a CC50 of 7400 nM.
Consider `COc1cc(NC(C(=O)c2c[nH]c3cc(F)c(F)cc23)c2ccc(Cl)cc2OC)cc(OCCO)c1` (racemic) [Compound 9, 2-(4-chloro-2-methoxyphenyl)-1-(5,6-difluoro-1H-indol-3-yl)-2-((3-(2-hydroxyethoxy)-5-methoxyphenyl)amino)ethanone], for which the EC50 in series [1] (setting [2]) amounted to 2.2 nM. Besides, it took 7300 nM to reach half-maximal cytotoxicity in “in vitro” (CC50).
`COc1cc(NC(C(=O)c2c[nH]c3c(F)cc(C)cc23)c2ccc(Cl)cc2OC)cc(OCCO)c1` (stereo not drawn) [Compound 10, 2-(4-chloro-2-methoxyphenyl)-1-(7-fluoro-5-methyl-1H-indol-3-yl)-2-((3-(2-hydroxyethoxy)-5-methoxyphenyl)amino)ethanone] returned an EC50 in series [1] (setting [2]) of 7.5 nM. Besides, it took 5800 nM to reach half-maximal cytotoxicity in “in vitro” (CC50).
In the case of `COc1cc(NC(C(=O)c2c[nH]c3cc(Cl)ccc23)c2ccc(Cl)cc2OC)cc(OCCO)c1` (single isomer, unassigned) [Compound 4B, 1-(6-chloro-1H-indol-3-yl)-2-(4-chloro-2-methoxyphenyl)-2-((3-(2-hydroxyethoxy)-5-methoxyphenyl)amino)ethanone], the EC50 in series [1] was 45 nM. The molecule also returned a 50% cytotoxic concentration (CC50) in the series on Vero cells of 7400 nM.
In series [1] (setting [2]), `COc1cc(NC(C(=O)c2c[nH]c3c(F)c(F)ccc23)c2ccc(Cl)cc2OC)cc(OCCO)c1` (racemic) [Compound 11, 2-(4-chloro-2-methoxyphenyl)-1-(6,7-difluoro-1H-indol-3-yl)-2-((3-(2-hydroxyethoxy)-5-methoxyphenyl)amino)ethanone] yielded an EC50 of 3.1 nM. Further, the CC50 in “in vitro” was determined as 5800 nM.
On to `COc1cc(NC(C(=O)c2c[nH]c3c(C)c(Cl)ccc23)c2ccc(Cl)cc2OC)cc(OCCO)c1` (single isomer, unassigned) [Compound 3B, 2-(4-chloro-2-methoxyphenyl)-1-(6-chloro-7-methyl-1H-indol-3-yl)-2-((3-(2-hydroxyethoxy)-5-methoxyphenyl)amino)ethanone], for which the EC50 in series [1] amounted to 45 nM. Besides, the midpoint of cytotoxicity in the series on Vero cells, the CC50, lay at 7100 nM.
In the case of `COc1cc(NC(C(=O)c2c[nH]c3c(F)cc(C)cc23)c2ccc(Cl)cc2OC)cc(OCCO)c1` (single isomer, unassigned) [Compound 10B, 2-(4-chloro-2-methoxyphenyl)-1-(7-fluoro-5-methyl-1H-indol-3-yl)-2-((3-(2-hydroxyethoxy)-5-methoxyphenyl)amino)ethanone], in series [1], the EC50 amounted to 190 nM. The molecule further showed a CC50 in the series with Vero cells of 3800 nM.
The molecule `COc1cc(NC(C(=O)c2c[nH]c3cc(F)ccc23)c2ccc(Cl)cc2OC)cc(OCCO)c1` (single isomer, unassigned) [Compound 1B, 2-(4-chloro-2-methoxyphenyl)-1-(6-fluoro-1H-indol-3-yl)-2-((3-(2-hydroxyethoxy)-5-methoxyphenyl)amino)ethanone] returned an EC50 in series [1] of 140 nM. This molecule registered a CC50 in the series with Vero cells of 6300 nM.
For `COc1cc(NC(C(=O)c2c[nH]c3cc(OC)c(F)cc23)c2ccc(Cl)cc2OC)cc(OCCO)c1` (single isomer, unassigned) [Compound 7B, 2-(4-chloro-2-methoxyphenyl)-1-(5-fluoro-6-methoxy-1H-indol-3-yl)-2-((3-(2-hydroxyethoxy)-5-methoxyphenyl)amino)ethanone] the same measures were 69 nM and 7800 nM.
In turn, `COc1cc(NC(C(=O)c2c[nH]c3cc(F)ccc23)c2ccc(Cl)cc2OC)cc(OCCO)c1` (racemic) [Compound 1, 2-(4-chloro-2-methoxyphenyl)-1-(6-fluoro-1H-indol-3-yl)-2-((3-(2-hydroxyethoxy)-5-methoxyphenyl)amino)ethanone] registered an EC50 in series [1] (setting [2]) of 3 nM. Also, in the series “in vitro”, half-maximal cytotoxicity (CC50) was put at 6200 nM.
For `COc1cc(NC(C(=O)c2c[nH]c3cc(OC)c(C)cc23)c2ccc(Cl)cc2OC)cc(OCCO)c1` (racemic) [Compound 6, 2-(4-chloro-2-methoxyphenyl)-2-((3-(2-hydroxyethoxy)-5-methoxyphenyl)amino)-1-(6-methoxy-5-methyl-1H-indol-3-yl)ethanone] the same measures were 1.2 nM and 5600 nM.
As to `COc1cc(NC(C(=O)c2c[nH]c3cc(OC)ccc23)c2ccc(Cl)cc2OC)cc(OCCO)c1` (racemic) [Compound 5, 2-(4-chloro-2-methoxyphenyl)-2-((3-(2-hydroxyethoxy)-5-methoxyphenyl)amino)-1-(6-methoxy-1H-indol-3-yl)ethanone], the EC50 in series [1] (setting [2]) was 2.3 nM. The molecule also had a CC50 in “in vitro” of 6500 nM.
Molecule `COc1cc(NC(C(=O)c2c[nH]c3c(C)cc(F)cc23)c2ccc(Cl)cc2OC)cc(OCCO)c1` (single isomer, unassigned) [Compound 8B, 2-(4-chloro-2-methoxyphenyl)-1-(5-fluoro-7-methyl-1H-indol-3-yl)-2-((3-(2-hydroxyethoxy)-5-methoxyphenyl)amino)ethanone] came in with an EC50 in series [1] of 260 nM. For the same molecule, in the series on Vero cells, the midpoint of cytotoxicity, the CC50, lay at 5700 nM.
For `COc1cc(NC(C(=O)c2c[nH]c3cc(OC)ccc23)c2ccc(Cl)cc2OC)cc(OCCO)c1` (single isomer, unassigned) [Compound 5B, 2-(4-chloro-2-methoxyphenyl)-2-((3-(2-hydroxyethoxy)-5-methoxyphenyl)amino)-1-(6-methoxy-1H-indol-3-yl)ethanone] the same measures were 400 nM and 8100 nM.
In series [1], `COc1cc(NC(C(=O)c2c[nH]c3c(F)c(F)ccc23)c2ccc(Cl)cc2OC)cc(OCCO)c1` (single isomer, unassigned) [Compound 11A, 2-(4-chloro-2-methoxyphenyl)-1-(6,7-difluoro-1H-indol-3-yl)-2-((3-(2-hydroxyethoxy)-5-methoxyphenyl)amino)ethanone] returned an EC50 of 90 nM. The CC50 in the series “in vitro” is 6500 nM.
`COc1cc(NC(C(=O)c2c[nH]c3cc(OC)c(C)cc23)c2ccc(Cl)cc2OC)cc(OCCO)c1` (single isomer, unassigned) [Compound 6B, 2-(4-chloro-2-methoxyphenyl)-2-((3-(2-hydroxyethoxy)-5-methoxyphenyl)amino)-1-(6-methoxy-5-methyl-1H-indol-3-yl)ethanone] displayed an EC50 in series [1] of 76 nM. Further, half-maximal cytotoxicity in the series on Vero cells (CC50) was put at 5400 nM.
In turn, `COc1cc(NC(C(=O)c2c[nH]c3c(C)c(F)ccc23)c2ccc(Cl)cc2OC)cc(OCCO)c1` (single isomer, unassigned) [Compound 2B, 2-(4-chloro-2-methoxyphenyl)-1-(6-fluoro-7-methyl-1H-indol-3-yl)-2-((3-(2-hydroxyethoxy)-5-methoxyphenyl)amino)ethanone] showed an EC50 in series [1] of 81 nM. The molecule also showed a CC50 with Vero cells of 6200 nM.
